Assay results reported in PMC11982498 (Redox Biology, 2025).

Columns and labels:
[1] = test system: BCL-2 promoter i-motif; experiment: CD melting experiment, BCL-2 i-motif; type: binding; details: BPES buffer pH 5.5; 20 equivalents (20 μM) compound
Description: CD-melting experiment was carried out following a published method without significant modification. BCL-2 promoter i-motif and G-quadruplex structures at a concentration of 5 μM were annealed in buffer at 95 °C for 10 min, and then cooled to room temperature. The annealed samples were incubated with B14 for 6 h, and then molar ellipticity at 287 nm for i-motif structure or 260 nm for G-quadruplex structure, where the CD value was the highest in our experiment, was measured over a temperature range of 20–90 °C at a heating rate of 0.5 °C/min. Tm values were determined and calculated through nonlinear regression curve fitting with software GraphPad Prism 9.0. (GraphPad Software Inc., California, USA).
Figure S6. CD melting experiments were performed to examine the effects of B14 and A22 on BCL-2 promoter i-motif and G-quadruplex. (A-H) CD melting experiments were performed for BCL-2 promoter i-motif or G-quadruplex in the absence or presence of B14 (2, 5, 20 equivalents) and A22 (20 equivalents). The oligonucleotide for BCL-2 i-motif was annealed in 1 X BPES buffer at pH 5.5, while the oligonucleotide for BCL-2 G-quadruplex was annealed in 20 mM Tris-HCl buffer with 20 mM NaCl at pH 7.4. The ΔTm values for the effects of B14 and A22 on BCL-2 promoter i-motif were determined to be 11.26 °C and 11.82 °C, respectively. […]

[2] = test system: SH-SY5Y cells; experiment: MTT cytotoxicity assay, SH-SY5Y; type: cell-based
Description: SH-SY5Y cells, HepG2 cells, HK-2 cells and HT-22 cells were seeded on 96-well plates (5.0×10^3 per well) with 100 μL of culture medium, and incubated for 12 h at 37 °C in a humidified atmosphere with 5% CO2, and then exposed to various concentrations of B14. After 48 h of treatment at 37 °C in a humidified atmosphere with 5% CO2, 100 μL of 0.5 mg/mL MTT solution was added to each well, and the mixture was further incubated for 4 h. The cells in each well were then treated with DMSO (200 μL for each well), and the culture medium was siphoned off, and the absorbance was recorded at 570 nm. All drug doses were parallel tested in triplicate, and the cytotoxicity was evaluated based on the percentage of cell survival in a dose-dependent manner regarding the negative control. The final IC50 values were determined by using Graph Pad Prism 9.0.

[3] = test system: Aβ1-42 aggregation in SH-SY5Y cells; experiment: Fluorescence imaging of intracellular Aβ1-42 accumulation (ThT); type: cell-based; details: 25 μM Aβ1-42; 25 μM B14, 48 h
Description: SH-SY5Y cells were seeded in a 96-well plate (6000 cells/well) in 100 μL medium. After the cells adhered to the wall, SH-SY5Y cells were incubated with serum-free medium containing 25 μM Aβ1-42 for 6 h to allow for the uptake of Aβ1-42 into the cells. Then solutions of B14 at different concentrations were added to the cells, with the mixtures incubated for 48 h. After being washed for three times with pre-cooled PBS, the cells were fixed with freshly prepared 4 % paraformaldehyde (Servicebio, Guangzhou, China) for 10 min at room temperature. After being washed for three times with pre-cooled PBS, the cells were incubated with ThT solution for 20 min at 25 °C in the dark. After washing for three times with pre-cooled PBS, the cells were stained with 10 μg/mL Hoechst 33342 solution (Aladdin, Shanghai, China) for 20 min at 25 °C in the dark. After washing for three times with pre-cooled PBS, the stained cells were observed and photographed with a FV3000 (Olympus, Japan) fluorescence microscope.

[4] = test system: APP/PS1 transgenic mice; experiment: TEM of hippocampus microstructure; type: in vivo; details: vs model group
From the text: Five months old male APP/PS1 mice, weighing 25–33 g, were purchased from Guangdong Medical Laboratory Animal Center and housed in the Laboratory Animal Center of Sun Yat-sen University (Guangzhou, China) for experimentation. All procedures were approved by the Animal Care and Use Committee of Sun Yat-sen University and complied with legal requirements and national guidelines for the care and maintenance of laboratory animals (Approval No. SYSU-IACUC-2024-002032). The mice were housed in a specific pathogen-free environment with a controlled temperature of 22 ± 1 °C and a 12-h dark/light cycle. The mice were fed with a standard diet, and 30 mice were randomly divided into 6 groups (N = 5). Compound B14 was dissolved in saline and administered at doses of 10, 20, or 40 mg/kg. APP/PS1 male mice were grown until 6 months of age, and then injected intraperitoneally with compound B14 every other day for 60 days. Behavioral experiments were then conducted, and tissue specimens were collected for biochemical analysis.
After the behavioral tests, the mice were anesthetized and perfused with 0.1 M pre-cooled phosphate-buffered saline for 5 min, followed by 4 % pre-cooled paraformaldehyde until the mice were stiff. The hippocampi were then extracted and fixed in 3 % pre-cooled glutaraldehyde solution for 6 h, cut into 0.5–1 mm^3 blocks, and post-fixed in 1 % osmium tetroxide for 60 min. […]

O=C(CCN1CCOCC1)Nc1ccc2c(c1)c(=O)c1cc(NC(=O)CCN3CCOCC3)ccc1n2-c1ccc2occc2c1 [Compound B14]
ΔTm (CD melting) [1]: 11.26 °C | toxicity to SH-SY5Y cells (viability) [2]: no significant toxicity to SH-SY5Y cells | IC50 ([2]; Homo sapiens, SH-SY5Y, incubation for 48 h): > 100 µM | ThT fluorescence of SH-SY5Y cells (intracellular Aβ1-42 aggregation) [3]: almost completely disappeared | hippocampal ultrastructure (myelin, synapses, mitochondria; TEM) [4]: the degree of mitochondrial damage was much reduced
